From article PMC12040169 (PLOS Biology, 2025) come the findings set out here.

The series in a line: in vitro. The conditions noted are these: human, hela cells, % viability.
Consider `Cn1c(Cc2csc(NC(=O)CNC(=O)Cc3ccccc3)n2)n[nH]c1=S` [CBK296765], for which the viability at 28.5 h, 10 µM is 102%.

Consider `Cc1ccc(CC(=O)Nc2nc(Cc3n[nH]c(=S)n3C)cs2)cc1` [CBK296766], for which the viability at 28.5 h, 10 µM was 90.5%.

As to `O=C(O)c1cc(S(=O)(=O)NCc2ccc(Cl)cc2Cl)ccc1O` [CBK296924], the viability at 28.5 h, 10 µM was found to be 94.7%.

Take `CCn1c(-c2ccc(C)cc2)cnc1SCC(=O)N1CCN(C(C)=O)CC1` [CBK296925]: the viability at 28.5 h, 10 µM came out at 110%.

Regarding `CCCCN(C(=O)c1cc(C)nc2ccccc12)c1ccccc1` [CBK296926], the viability at 28.5 h, 10 µM stood at 89.9%.

Take `Cc1ccc(C2=NN(C(=O)CCC(=O)O)C(c3cc4cccc(C)c4[nH]c3=O)C2)cc1` (centres unmarked) [CBK296927]: the viability at 28.5 h, 10 µM turned out to be 91%.

As to `CC(=O)Nc1ccc(NC(=O)CC2(CC(=O)O)CCCC2)cc1` [CBK296931], the viability at 28.5 h, 10 µM came to 97.3%.

On to `Cc1ccc(Cn2ccsc2=NC(=O)c2cc(S(=O)(=O)N3CCOCC3)ccc2C)cc1` [CBK296935], for which the viability at 28.5 h, 10 µM worked out at 101%.

In the case of `O=C(Cn1nc(C(=O)O)c2ccccc2c1=O)c1ccc(S(=O)(=O)N2CCOCC2)cc1` [CBK296939], the viability at 28.5 h, 10 µM was found to be 90.2%.

For the compound `CCN(CC)C(=O)c1cccc(NS(=O)(=O)c2cccc(C(=O)O)c2)c1` [CBK296943], the viability at 28.5 h, 10 µM came to 97.6%.

Turning to `CC1CCCC(C)N1S(=O)(=O)c1ccc(NS(=O)(=O)c2cccc(C(=O)O)c2)cc1` (centres unmarked) [CBK296944], the viability at 28.5 h, 10 µM was determined as 94.6%.

With `COc1cc(C=c2sc(=CC(=O)C(C)(C)C)[nH]c2=O)ccc1OCC(=O)O` [CBK296948], the viability at 28.5 h, 10 µM turned out to be 104%.

`O=C(Cc1ccc(Cl)cc1Cl)Nc1ccc(-c2nnc3n2CCCCC3)cc1` [CBK296949]: the viability at 28.5 h, 10 µM came to 94.8%.

With `CC(C)NS(=O)(=O)c1ccc(NS(=O)(=O)c2cccc(C(=O)O)c2)cc1` [CBK296950], the viability at 28.5 h, 10 µM was 84.3%.

For the compound `Cc1ccc(NS(=O)(=O)c2cc(C(=O)O)ccc2Cl)cc1S(=O)(=O)N1CCOCC1` [CBK296954], the viability at 28.5 h, 10 µM amounted to 113%.

Regarding `Cc1nc(SCCN2C(=O)c3ccccc3S2(=O)=O)c2ccccc2n1` [CBK296958], the viability at 28.5 h, 10 µM was determined as 90%.

Turning to `Cc1ccc2nc(COC(=O)c3cc(-c4ccccc4)nn3-c3ccccc3)cc(=O)n2c1` [CBK296959], the viability at 28.5 h, 10 µM turned out to be 89.8%.

For `CCCn1c(SCC(=O)c2ccc(CCNC(C)=O)cc2)n[nH]c1=O` [CBK296965], the viability at 28.5 h, 10 µM came to 92.1%.

For `CCCn1c(SCc2nc(N)nc(Nc3ccccc3CC)n2)n[nH]c1=O` [CBK296966], the viability at 28.5 h, 10 µM is 86.6%.

In the case of `CCCn1c(SCC(=O)Nc2scc(-c3cccs3)c2C(=O)OCC)n[nH]c1=O` [CBK296967], the viability at 28.5 h, 10 µM is 94.5%.

With `COc1cc(C)c(CN2CCN(C(=O)COc3cc4ccccc4cc3C(=O)O)CC2)cc1OC` [CBK296968], the viability at 28.5 h, 10 µM worked out at 99.6%.

Take `CCCn1c(SCc2csc(CC(=O)Nc3ccccc3C)n2)n[nH]c1=O` [CBK296969]: the viability at 28.5 h, 10 µM came to 91.1%.

For `CCCCc1ccc(N2C(=O)CC(Nc3ccc(C(=O)O)cc3)C2=O)cc1` (centres unmarked) [CBK296972], the viability at 28.5 h, 10 µM was 108%.

For `COc1cc(-c2nnc(CSc3nc4sc(C(=O)O)c(C)c4c(=O)[nH]3)o2)cc(OC)c1OC` [CBK296973], the viability at 28.5 h, 10 µM stood at 91%.

Consider `O=C(O)CCC(=O)Nc1cccc(C(=O)Nc2cccc(Cl)c2)c1` [CBK296977], for which the viability at 28.5 h, 10 µM came out at 89.8%.

As for `Cc1ccc(Sc2ncccc2C(=O)Nc2ccnn2Cc2cccnc2)cc1C` [CBK296980], the viability at 28.5 h, 10 µM came to 109%.

Regarding `COc1ccc(OC)c(-n2c(SCC(=O)N3CCC(C(=O)O)CC3)nc3ccccc3c2=O)c1` [CBK296981], the viability at 28.5 h, 10 µM turned out to be 87.5%.

Consider `CSCCC(C(=O)O)N1C(=O)C(=Cc2ccc(-c3cccc(Cl)c3)o2)SC1=S` (centres unmarked) [CBK296982], for which the viability at 28.5 h, 10 µM amounted to 99.3%.

Consider `CCCC(C(=O)O)N1C(=O)C(=Cc2ccc(-c3ccc(C(=O)OCC)cc3)o2)SC1=S` (centres unmarked) [CBK296983], for which the viability at 28.5 h, 10 µM was 80.6%.
